Test results reported in patent publication US5169758A (Boehringer Mannheim GmbH, priority 1986, dated 1992).

Tested on: NAD(P)H-dependent, soluble nitrate reductase of the assimilatory type (E.C. 1.6.6.2) from mould fungus
Details: nitrite acts as inhibitor above this concentration

In the case of `O=NO` [nitrite], the “Inhibitor concentration (product inhibition)” value is reported as “more than 10^-4 M”.
